Like-named read-outs stand apart in the source and are kept apart here.
Assays:
[1] = Pharmacokinetic study: plasma levels after oral SZ-A in SD rats (LC-MS/MS, DAS 3.2.8); assay type: in vivo; settings: for Tmax / AUC(0-inf) / AUC(0-t) / Cmax / half-life / MRT last / MRT inf: both sexes, rat; for Tmax: SD, po; for Tmax / AUC(0-inf) / AUC(0-t) / Cmax / half-life / MRT last / MRT inf / CLz / VRT(0-t) / VRT(0-∞) / Vz: plasma; for AUC(0-inf) / AUC(0-t) / Cmax / half-life / CLz / VRT(0-t) / VRT(0-∞) / Vz: n=8; for MRT last: n=8, read-out: MRT(0-t); for MRT inf: n=8, read-out: MRT(0-∞)
Method: Twenty-four SD rats were fasted for 12 h (free access to water) and randomly classified into three groups (n = 8; half male and female) that received different doses of SZ-A solution (25, 50, and 200 mg/kg) via oral administration. After completion of dose administration, blood samples (0.3 mL) were collected through an indwelling catheter from the jugular vein at predetermined time points (5, 15, 30, and 45 min, 1, 2, 4, 8, and 24 h). The blood was centrifuged at 5,000 rpm for 10 min to separate the plasma. All plasma samples were stored frozen at −80°C until liquid chromatography coupled to tandem mass spectrometry (LC-MS/MS) analysis (AB SCIEX Triple Quad™ 4,500 mass spectrometer, Applied Biosystems Inc., United States).
Primary pharmacokinetic parameters, including Cmax, Tmax, area under the plasma concentration-time curve (AUC), t1/2, clearance rate, and the apparent volume of distribution, were calculated using DAS 3.2.8 (Bio Guider Co., Shanghai, China).

[2] = test system: major CYP450s in HLMs; assay: Effect on activity of the major CYP450s in human liver microsomes (all isoforms together); settings: final concentration SZ-A 8.899 μg/mL (equivalent to DNJ 20 μM), FA 5 μM, DAB 8 μM
[3] = test system: CYP450s in RLMs (other isoenzymes); assay: Effect on activity of rat liver microsome isoenzymes other than CYP2C11; settings: SZ-A 8.899 μg/mL, DNJ 20 μM, FA 5 μM, DAB 8 μM
[4] = Identification of metabolites in HLMs/RLMs and rat plasma (Q-Extractive high-resolution MS); assay type: in vitro ADME, human; settings: HLMs/RLMs and rat plasma reaction system
Method: Furthermore, 5 μL of the supernatant was collected for LC-MS/MS analysis. The LC-MS/MS conditions were as follows: chromatographic column (XBridge™ Amide, 3.5 µm, 4.6 × 150 mm); mobile phase, water (0.1% ammonia) and acetonitrile, other conditions are the same as those in CYP450s inhibition study, with the following scan parameters: resolution, 70,000; AGC target, 3,000,000; maximum IT, 200 ms; and scan range, 50–600 m/z.

[5] = design: method as in Mackay et al., 2003; settings: rats; ref Mackay et al., 2003; cited from earlier work
[6] = design: method as in Nakagawa et al., 2007; settings: rats, after oral gavage of DNJ; ref Nakagawa et al., 2007; cited from earlier work
[7] = 25 mg/kg, oral SZ-A 25 mg/kg, n=8, read-out: Tmax
[8] = 50 mg/kg, oral SZ-A 50 mg/kg, n=8, read-out: Tmax
[9] = 200 mg/kg, oral SZ-A 200 mg/kg, n=8, read-out: Tmax
[10] = 200 mg/kg, oral SZ-A 25, 50 and 200 mg/kg, read-out: time to maximum plasma concentration (Tmax), all dose groups

Row | Tmax [1, 7] [h] | Tmax [1, 8] [h] | Tmax [1, 9] [h] | Tmax [1, 10] [h] | AUC(0-inf) ([1]; oral SZ-A 25 mg/kg) [ng·h/mL] | AUC(0-t) ([1]; oral SZ-A 25 mg/kg) [ng·h/mL] | Cmax ([1]; oral SZ-A 25 mg/kg) [ng/mL] | half-life ([1]; oral SZ-A 25 mg/kg) [h] | MRT last ([1]; oral SZ-A 25 mg/kg) [h] | MRT inf ([1]; oral SZ-A 25 mg/kg) [h] | AUC(0-inf) ([1]; oral SZ-A 50 mg/kg) [ng·h/mL] | AUC(0-t) ([1]; oral SZ-A 50 mg/kg) [ng·h/mL] | Cmax ([1]; oral SZ-A 50 mg/kg) [ng/mL] | half-life ([1]; oral SZ-A 50 mg/kg) [h] | MRT last ([1]; oral SZ-A 50 mg/kg) [h] | MRT inf ([1]; oral SZ-A 50 mg/kg) [h] | AUC(0-inf) ([1]; oral SZ-A 200 mg/kg) [ng·h/mL] | AUC(0-t) ([1]; oral SZ-A 200 mg/kg) [ng·h/mL] | Cmax ([1]; oral SZ-A 200 mg/kg) [ng/mL] | half-life ([1]; oral SZ-A 200 mg/kg) [h] | Compound | also measured
1 | 0.31 ± 0.12 | 0.44 ± 0.35 | 0.75 ± 0.3 | ≤ 0.88 | 1360 ± 299 | 1360 ± 299 | 1050 ± 141 | 1.16 ± 0.31 | 1.26 ± 0.17 | 1.26 ± 0.17 | 2660 ± 367 | 2660 ± 367 | 1770 ± 632 | 1.2 ± 0.03 | 1.45 ± 0.56 | 1.45 ± 0.56 | 7630 ± 2040 | 7630 ± 2040 | 3640 ± 1370 | 1.08 ± 0.04 | OC[C@H]1NC[C@@H](O)[C@@H]1O [DAB, 1,4-dideoxy-1,4-imino-D-arabinitol] | MRT last ([1]; oral SZ-A 200 mg/kg): 1.6 ± 0.26 h; MRT inf ([1]; oral SZ-A 200 mg/kg): 1.6 ± 0.26 h; CLz ([1]; oral SZ-A 25 mg/kg): 45.3 ± 11 mL/min/kg; VRT(0-t) ([1]; oral SZ-A 25 mg/kg): 1.25±0.51 h^2; VRT(0-∞) ([1]; oral SZ-A 25 mg/kg): 1.25±0.51 h^2; Vz ([1]; oral SZ-A 25 mg/kg): 4.47 ± 1.53 L/kg; CLz ([1]; oral SZ-A 50 mg/kg): 45.2 ± 6.17 mL/min/kg; VRT(0-t) ([1]; oral SZ-A 50 mg/kg): 1.83±2.07 h^2; VRT(0-∞) ([1]; oral SZ-A 50 mg/kg): 1.83±2.07 h^2; Vz ([1]; oral SZ-A 50 mg/kg): 4.70 ± 0.65 L/kg; CLz ([1]; oral SZ-A 200 mg/kg): 65.7 ± 16.7 mL/min/kg; VRT(0-t) ([1]; oral SZ-A 200 mg/kg): 1.92±0.81 h^2; VRT(0-∞) ([1]; oral SZ-A 200 mg/kg): 1.92±0.81 h^2; Vz ([1]; oral SZ-A 200 mg/kg): 6.20 ± 1.82 L/kg; effect on the major CYP450s in HLMs, either inhibition or activation [2]: no significant effect; effect on other isoenzymes in RLMs [3]: no obvious effect; metabolites found [4]: no detectable phase I and phase II metabolites; form excreted [5]: mainly excreted unchanged
2 | 0.41 ± 0.23 | 0.63 ± 0.33 | 0.78 ± 0.25 | ≤ 0.88 | 7160 ± 1650 | 7160 ± 1650 | 4950 ± 978 | 1.02 ± 0.27 | 1.27 ± 0.2 | 1.27 ± 0.2 | 12600 ± 3470 | 12600 ± 3470 | 7080 ± 1640 | 1.07 ± 0.04 | 1.51 ± 0.42 | 1.51 ± 0.42 | 38500 ± 18000 | 38300 ± 18000 | 19400 ± 10800 | 3.25 ± 4.2 | OC[C@H]1NC[C@H](O)[C@@H](O)[C@@H]1O [DNJ, 1-deoxynojirimycin] | MRT last ([1]; oral SZ-A 200 mg/kg): 1.79 ± 0.3 h; MRT inf ([1]; oral SZ-A 200 mg/kg): 2.02 ± 0.59 h; differences in t1/2 and CLz between the three doses ([1]; oral SZ-A 25, 50, 200 mg/kg): no significant differences; CLz ([1]; oral SZ-A 25 mg/kg): 41.7 ± 11.2 mL/min/kg; VRT(0-t) ([1]; oral SZ-A 25 mg/kg): 1.15±0.57 h^2; VRT(0-∞) ([1]; oral SZ-A 25 mg/kg): 1.15±0.57 h^2; Vz ([1]; oral SZ-A 25 mg/kg): 3.65 ± 1.45 L/kg; CLz ([1]; oral SZ-A 50 mg/kg): 48 ± 12.7 mL/min/kg; VRT(0-t) ([1]; oral SZ-A 50 mg/kg): 2.02±1.71 h^2; VRT(0-∞) ([1]; oral SZ-A 50 mg/kg): 2.02±1.71 h^2; Vz ([1]; oral SZ-A 50 mg/kg): 4.47 ± 1.30 L/kg; CLz ([1]; oral SZ-A 200 mg/kg): 74.5 ± 44.2 mL/min/kg; VRT(0-t) ([1]; oral SZ-A 200 mg/kg): 6.42±4.65 h^2; VRT(0-∞) ([1]; oral SZ-A 200 mg/kg): 16.10±21.66 h^2; Vz ([1]; oral SZ-A 200 mg/kg): 17.77 ± 20.83 L/kg; effect on the major CYP450s in HLMs, either inhibition or activation [2]: no significant effect; effect on other isoenzymes in RLMs [3]: no obvious effect; DNJ metabolites in plasma [6]: did not detect any DNJ metabolites; metabolites found [4]: no detectable phase I and phase II metabolites
3 | 0.5 ± 0.3 | 0.56 ± 0.37 | 0.88 ± 0.27 | ≤ 0.88 | 1040 ± 356 | 1040 ± 356 | 616 ± 168 | 1.16 ± 0.31 | 1.55 ± 0.23 | 1.55 ± 0.23 | 2370 ± 634 | 2370 ± 634 | 1250 ± 506 | 1.19 ± 0.03 | 1.67 ± 0.61 | 1.67 ± 0.61 | 6010 ± 1650 | 6010 ± 1650 | 2580 ± 1250 | 1.08 ± 0.04 | OC[C@H]1NCC[C@@H](O)[C@@H]1O [FA, fagomine] | MRT last ([1]; oral SZ-A 200 mg/kg): 1.97 ± 0.22 h; MRT inf ([1]; oral SZ-A 200 mg/kg): 1.97 ± 0.22 h; CLz ([1]; oral SZ-A 25 mg/kg): 78.5 ± 24.3 mL/min/kg; VRT(0-t) ([1]; oral SZ-A 25 mg/kg): 1.46±0.55 h^2; VRT(0-∞) ([1]; oral SZ-A 25 mg/kg): 1.46±0.55 h^2; Vz ([1]; oral SZ-A 25 mg/kg): 7.62 ± 2.89 L/kg; CLz ([1]; oral SZ-A 50 mg/kg): 66.7 ± 17.3 mL/min/kg; VRT(0-t) ([1]; oral SZ-A 50 mg/kg): 1.90±2.02 h^2; VRT(0-∞) ([1]; oral SZ-A 50 mg/kg): 1.91±2.02 h^2; Vz ([1]; oral SZ-A 50 mg/kg): 6.88 ± 1.85 L/kg; CLz ([1]; oral SZ-A 200 mg/kg): 105 ± 26.7 mL/min/kg; VRT(0-t) ([1]; oral SZ-A 200 mg/kg): 3.08±0.76 h^2; VRT(0-∞) ([1]; oral SZ-A 200 mg/kg): 3.08±0.76 h^2; Vz ([1]; oral SZ-A 200 mg/kg): 9.94 ± 2.86 L/kg; effect on the major CYP450s in HLMs, either inhibition or activation [2]: no significant effect; effect on other isoenzymes in RLMs [3]: no obvious effect; metabolites found [4]: only trace oxidation products

From paper PMC9981942, “Pharmacokinetics and tissue distribution of Ramulus Mori (Sangzhi) alkaloids in rats and its effects on liver enzyme activity” (Frontiers in Pharmacology, 2023)
